In ChEMBL document CHEMBL1140045, “Crystal structures of rat vitamin D receptor bound to adamantyl vitamin D analogs: structural basis for vitamin D receptor antagonism and partial agonism” (J Med Chem, 2008):
The source made the active and inactive calls. The calls are words filed in the database; no cut-off is given here.

How the values were obtained:
[1] = target: T1, Vitamin D3 receptor (Homo sapiens) (UniProt P11473); experiment: Binding affinity to VDR relative to 1,25-Dihydroxyvitamin D3
T1 sequence (whole entry): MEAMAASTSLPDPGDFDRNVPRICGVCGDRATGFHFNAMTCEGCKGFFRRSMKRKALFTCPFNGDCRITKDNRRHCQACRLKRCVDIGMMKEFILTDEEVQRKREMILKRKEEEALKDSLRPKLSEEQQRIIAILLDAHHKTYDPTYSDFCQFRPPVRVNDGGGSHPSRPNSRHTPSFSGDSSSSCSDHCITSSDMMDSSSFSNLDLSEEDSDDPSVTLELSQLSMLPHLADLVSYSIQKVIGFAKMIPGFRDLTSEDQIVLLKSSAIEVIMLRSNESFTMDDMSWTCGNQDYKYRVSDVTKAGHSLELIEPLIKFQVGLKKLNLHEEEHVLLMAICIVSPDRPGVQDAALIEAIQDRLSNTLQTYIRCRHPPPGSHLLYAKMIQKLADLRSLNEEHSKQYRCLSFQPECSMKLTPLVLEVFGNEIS

Vitamin D3 receptor [2] = target: T2, Vitamin D3 receptor (Homo sapiens, UniProt P11473); experiment: Agonist activity at VDR assessed as receptor transactivation by transient transcription assay; type: functional
T2 sequence (P11473 whole entry): T1 sequence (whole entry)

[3] = target: T1, Vitamin D3 receptor (Homo sapiens); experiment: Agonist activity at VDR assessed as receptor transactivation by transient transcription assay relative to 1,25-Dihydroxyvitamin D3; type: functional
Vitamin D3 receptor [4] = target: T2, Vitamin D3 receptor; experiment: Antagonist activity at VDR expressed in COS7 cells assessed as inhibition of 1,25-Dihydroxyvitamin D3-induced response by transient transcription assay; type: functional, cell-based, COS-7

Row | SMILES | Activity [1] | EC50 (Vitamin D3 receptor [2]) [nM] | Activity [3] [%] | IC50 (Vitamin D3 receptor [4]) [nM]
1 | C=C1[C@H](O)CC(=C/C=C2\CCC[C@]3(C)[C@@H]([C@H](C)/C=C/[C@@H](O)C45CC6CC(CC(C6)C4)C5)CC[C@@H]23)C[C@H]1O | 20% | 0.02 | 74 | 
2 | C=C1[C@H](O)CC(=C/C=C2\CCC[C@]3(C)[C@@H]([C@@H](C)/C=C/C[C@@H](O)CC45CC6CC(CC(C6)C4)C5)CC[C@@H]23)C[C@H]1O | Active | 24 | 10 | 
3 | C=C1[C@H](O)CC(=C/C=C2\CCC[C@]3(C)[C@@H]([C@@H](C)/C=C/C[C@@H](O)C45CC6CC(CC(C6)C4)C5)CC[C@@H]23)C[C@H]1O | 75% | 1 | 15 | 3
